# Laboratory results reported in patent publication US20110021543A1, “HETEROCYCLIC COMPOUNDS AND THEIR USE AS PESTICIDES” (priority 2007, published 2011).
# Assays:
# [1] = tested on: Rhipicephalus sanguineus (dog tick); experiment: Activity in vitro against Rhipicephalus sanguineus (dog tick), adult tick contact test in 96-well plate; conditions: at 640 ppm, 10 minutes contact, incubated 7 days at 28° C. and 80% relative humidity
# Experimental: 1. Activity In Vitro Against Rhipicephalus sanguineus (Dog Tick).
# A clean adult tick population is used to seed a suitably formatted 96-well plate containing the test substances to be evaluated for antiparasitic activity. Each compound is tested by serial dilution in order to determine its minimal effective dose (MED). Ticks are left in contact with the test compound for 10 minutes and are then incubated at 28° C. and 80% relative humidity for 7 days, during which the test compound's effect is monitored. Acaricidal activity is confirmed if adult ticks are dead.
# [2] = tested on: Ctenocephalides felis (cat flea); experiment: Activity in vitro against Ctenocephalides felis (cat flea), artificial blood feeding system; conditions: at 100 ppm; adult fleas fed on treated blood for 24 hours
# Experimental: 2. Activity In Vitro Against Ctenocephalides felis (Cat Flea). A mixed adult population of fleas is placed in a suitably formatted 96-well plate allowing fleas to access and feed on treated blood via an artificial feeding system. Each compound is tested by serial dilution in order to determine its MED. Fleas are fed on treated blood for 24 hours, after which the compound's effect is recorded. Insecticidal activity is determined on the basis of the number of dead fleas recovered from the feeding system.
smiles,measurement,setting,value
"CC(O)(c1cn(-c2c(Cl)cc(C(F)(F)F)cc2Cl)c2cccnc12)C(F)(F)F (centres unmarked) [Compound 1.43, 2-[1-(2,6-Dichloro-4-trifluoromethyl-phenyl)-1H-pyrrolo[3,2-b]pyridin-3-yl]-1,1,1-trifluoro-propan-2-ol]","efficacy (acaricidal activity, dead adult ticks)",[1],more than 80%
same,"efficacy (insecticidal activity, dead fleas)",[2],more than 80%
